From ChEMBL document CHEMBL1649509, “Lon protease is essential for paradoxical survival of Escherichia coli exposed to high concentrations of quinolone” (Antimicrob Agents Chemother, 2009)
Activity calls are given as the source filed them.

Assays:
Type in all cases: functional, organism-based
Escherichia coli [1] = assay: Antibacterial activity against Escherichia coli K-12 by viscometric assay
Escherichia coli [2] = assay: Antibacterial activity against lon-deficient Escherichia coli KD2372
Escherichia coli [3] = assay: Antibacterial activity against Escherichia coli K-12 harboring lon sulA double mutant gene
Escherichia coli [4] = assay: Antibacterial activity against lon-deficient Escherichia coli KD2372 by viscometric assay
Escherichia coli [5] = assay: Antibacterial activity against Escherichia coli K-12 harboring gyrA67/gyrB225 mutant gene
Escherichia coli [6] = assay: Antibacterial activity against Escherichia coli K-12 harboring lon lexA3 mutant gene

Measured: Activity

CCn1cc(C(=O)O)c(=O)c2ccc(C)nc21
inactive: Escherichia coli [1]
active: all other assays above
